Data from BindingDB's records for doi:10.1016/j.ejmech.2019.111807 (Universitat De Barcelona, 2020).
pIC50: −log10 of the molar value.

Experiment: Bioactivation in CYP1A1 (unknown origin) transfected CHO cells assessed as CYP1A1-mediated drug activation by measuring reduction in cell viability

With CCCCc1c2c(c(C)c3c1C(=O)OC3)Oc1ccccc1O2 as the compound, how does the pIC50 read?
The pIC50 was 6.40.

With CCCCCCc1c2c(c(C)c3c1C(=O)OC3)Oc1ccccc1O2 as the compound, how does the pIC50 read?
The pIC50 was 5.59.
